System: MCF-7 breast cancer cells
Assay: Microarray gene expression analysis (Agilent whole human genome 4 x 44K; compound vs DMSO, LIMMA log2 fold change)
Type: cell-based
[1] = MCF-7, 100nM, six hours, 1.5-fold expression change threshold

Compound: Cn1ncc2c(N3CCOCC3)nc(-c3cccc(O)c3)nc21 [ETP-45658]
- ESCO1 log2FC (Gene 114799, cell cycle genes): 0.560
- UHRF2 log2FC (Gene 115426, cell cycle genes): 0.500
- KLHDC3 log2FC (Gene 116138, cell cycle genes): -0.048
- CNTROB log2FC (Gene 116840, cell cycle genes): -0.102
- NEDD1 log2FC (Gene 121441, cell cycle genes): 0.443
- HEXIM2 log2FC (Gene 124790, cell cycle genes): 0.577
- ARL8A log2FC (Gene 127829, cell cycle genes): 0.446
- UHMK1 log2FC (Gene 127933, cell cycle genes): -0.099
- IQGAP3 log2FC (Gene 128239, cell cycle genes): 0.155
- NUP35 log2FC (Gene 129401, cell cycle genes): -0.169
- MITD1 log2FC (Gene 129531, cell cycle genes): 0.836
- NUDT16 log2FC (Gene 131870, cell cycle genes): -0.327
- ZFP42 log2FC (Gene 132625, cell cycle genes): 0.031
- JMY log2FC (Gene 133746, cell cycle genes): 1.016
- HUS1B log2FC (Gene 135458, cell cycle genes): -0.791
- NEK7 log2FC (Gene 140609, cell cycle genes): 0.053
- CTCFL log2FC (Gene 140690, cell cycle genes): -0.021
- PSMA8 log2FC (Gene 143471, cell cycle genes): 0.068
- SESN3 log2FC (Gene 143686, cell cycle genes): 0.057
- PIWIL4 log2FC (Gene 143689, cell cycle genes): 0.405
- E2F7 log2FC (Gene 144455, cell cycle genes): -0.474
- RAD9B log2FC (Gene 144715, cell cycle genes): 0.061
- KCTD11 log2FC (Gene 147040, cell cycle genes): 0.142
- PYHIN1 log2FC (Gene 149628, cell cycle genes): -0.052
- PPP1R1C log2FC (Gene 151242, cell cycle genes): 0.132
- SGOL2 log2FC (Gene 151246, cell cycle genes): 0.811
- SGOL1 log2FC (Gene 151648, cell cycle genes): 0.489
- ROPN1B log2FC (Gene 152015, cell cycle genes): 0.058
- DAB2IP log2FC (Gene 153090, cell cycle genes): -0.220
- CDCA2 log2FC (Gene 157313, cell cycle genes): 0.547
- ESCO2 log2FC (Gene 157570, cell cycle genes): 0.730
- SASS6 log2FC (Gene 163786, cell cycle genes): 0.483
- WBP2NL log2FC (Gene 164684, cell cycle genes): -0.063
- THAP5 log2FC (Gene 168451, cell cycle genes): 0.256
- FLCN log2FC (Gene 201163, cell cycle genes): 0.968
- STRA13 log2FC (Gene 201254, cell cycle genes): -0.358
- TUBB log2FC (Gene 203068, cell cycle genes): -0.709
- REEP3 log2FC (Gene 221035, cell cycle genes): -0.240
- C6orf89 log2FC (Gene 221477, cell cycle genes): -0.508
- SPDYA log2FC (Gene 245711, cell cycle genes): -0.071
- CDC26 log2FC (Gene 246184, cell cycle genes): -0.688
- ASPM log2FC (Gene 259266, cell cycle genes): 1.100
- SLC39A5 log2FC (Gene 283375, cell cycle genes): -0.022
- GAS2L3 log2FC (Gene 283431, cell cycle genes): 0.617
- NSMCE2 log2FC (Gene 286053, cell cycle genes): 1.151
- LIN9 log2FC (Gene 286826, cell cycle genes): 1.274
- TMPRSS11A log2FC (Gene 339967, cell cycle genes): 0.046
- NUP43 log2FC (Gene 348995, cell cycle genes): 0.749
- APITD1 log2FC (Gene 378708, cell cycle genes): 0.144
- SETD8 log2FC (Gene 387893, cell cycle genes): 0.093
- PIM3 log2FC (Gene 415116, cell cycle genes): 0.693
- PIWIL3 log2FC (Gene 440822, cell cycle genes): -0.066
- expression of FOXO-dependent apoptosis genes including TNFSF10, BCL211 and FASLG (array) (MCF-7): did not significantly change
- number of induced (upregulated) genes [1]: 1,549
- number of repressed (downregulated) genes [1]: 989
- CCND1, SPRY2 and MMP9 expression (array) (MCF-7, FOXO target genes): significantly downregulated
- expression of CCNG2, KLHL24, DDIT3, CITED2 and RICTOR (array) (MCF-7, FOXO target genes): significantly upregulated
- bound FOXO sites (transcription factor enrichment analysis) (MCF-7, upregulated genes): highly significant increase
- MAD1L1 log2FC (cell cycle genes): -0.032
- ACSL5 log2FC (gene ACSL5 (51703), apoptosis genes): 0.011
- log2FC (gene ACTR1A (Gene 10121), cell cycle genes): -0.180
- ADAMTS20 log2FC (gene ADAMTS20 (80070), apoptosis genes): 0.014
- ADIPOQ log2FC (gene ADIPOQ (9370), apoptosis genes): 0.013
- ADRA1A log2FC (gene ADRA1A (148), apoptosis genes): 0.060
- AGTR2 log2FC (gene AGTR2 (186), apoptosis genes): 0.004
- log2FC AKAP8 (gene AKAP8 (Gene 10270), cell cycle genes): -0.037
- ALB log2FC (gene ALB (213), apoptosis genes): -0.050
- ALOX12 log2FC (gene ALOX12 (239), apoptosis genes): 0.083
- ALX3 log2FC (gene ALX3 (257), apoptosis genes): -0.018
- ALX4 log2FC (gene ALX4 (60529), apoptosis genes): -0.043
- log2FC (gene ANAPC13 (Gene 25847), cell cycle genes): -0.342
- ANKRD13C log2FC (gene ANKRD13C (81573), apoptosis genes): 0.077
- APBB1 log2FC (gene APBB1 (322), apoptosis genes): 0.078
- APOH log2FC (gene APOH (350), apoptosis genes): -0.009
- AQP1 log2FC (gene AQP1 (358), apoptosis genes): -0.015
- ARHGAP10 log2FC (gene ARHGAP10 (79658), apoptosis genes): -0.010
- ARHGEF6 log2FC (gene ARHGEF6 (9459), apoptosis genes): -0.041
- ARHGEF16 log2FC (gene ARHGEF16 (27237), apoptosis genes): 0.078
- ARHGEF18 log2FC (gene ARHGEF18 (23370), apoptosis genes): -0.051
- ATOH1 log2FC (gene ATOH1 (474), apoptosis genes): -0.034
- ATPIF1 log2FC (gene ATPIF1 (93974), apoptosis genes): 0.069
- log2FC (gene ATR (Gene 545), cell cycle genes): 0.346
- log2FC (gene BAD (Gene 572), cell cycle genes): 0.276
- BCL2L10 log2FC (gene BCL2L10 (10017), apoptosis genes): -0.024
- BDKRB2 log2FC (gene BDKRB2 (624), apoptosis genes): 0.060
- BIRC2 log2FC (gene BIRC2 (329), apoptosis genes): 0.082
- BIRC8 log2FC (gene BIRC8 (112401), apoptosis genes): -0.014
- BMP2 log2FC (gene BMP2 (650), apoptosis genes): -0.038
- log2FC (gene BMP4 (Gene 652), cell cycle genes): 0.407
- BMP5 log2FC (gene BMP5 (653), apoptosis genes): 0.022
- BOK log2FC (gene BOK (666), apoptosis genes): -0.021
- log2FC (gene BRE (Gene 9577), cell cycle genes): -0.322
- BTK log2FC (gene BTK (695), apoptosis genes): -0.064
- log2FC (gene BUB1B (Gene 701), cell cycle genes): 0.344
- C1QBP log2FC (gene C1QBP (708), apoptosis genes): 0.052
- C3orf38 log2FC (gene C3orf38 (285237), apoptosis genes): -0.027
- log2FC (gene CAMK2B (Gene 816), cell cycle genes): -0.123
- CAPN3 log2FC (gene CAPN3 (825), apoptosis genes): 0.007
- log2FC CAPN3 (gene CAPN3 (Gene 825), cell cycle genes): 0.007
- CARD9 log2FC (gene CARD9 (64170), apoptosis genes): -0.027
- CARD14 log2FC (gene CARD14 (79092), apoptosis genes): 0.026
- log2FC (gene CASP3 (Gene 836), cell cycle genes): 0.546
- CASP10 log2FC (gene CASP10 (843), apoptosis genes): -0.013
- CASP12 log2FC (gene CASP12 (120329), apoptosis genes): 0.004
- CCK log2FC (gene CCK (885), apoptosis genes): -0.026
- CCL19 log2FC (gene CCL19 (6363), apoptosis genes): -0.021
- log2FC (gene CCNB2 (Gene 9133), cell cycle genes): 0.253
- log2FC (gene CCNH (Gene 902), cell cycle genes): 0.426
- log2FC (gene CCNT2 (Gene 905), cell cycle genes): 0.221
- CD38 log2FC (gene CD38 (952), apoptosis genes): -0.014
- CD40LG log2FC (gene CD40LG (959), apoptosis genes): -0.031
- CD248 log2FC (gene CD248 (57124), apoptosis genes): -0.012
- log2FC (gene CDC73 (Gene 79577), cell cycle genes): 0.443
- CDH1 log2FC (gene CDH1 (999), apoptosis genes): 0.047
- log2FC CDH13 (gene CDH13 (Gene 1012), cell cycle genes): -0.017
- log2FC CDK2AP1 (gene CDK2AP1 (Gene 8099), cell cycle genes): -0.041
- CDK5 log2FC (gene CDK5 (1020), apoptosis genes): -0.089
- log2FC CDK5RAP1 (gene CDK5RAP1 (Gene 51654), cell cycle genes): 0.018
- log2FC CDKN2B (gene CDKN2B (Gene 1030), cell cycle genes): 0.013
- log2FC (gene CENPJ (Gene 55835), cell cycle genes): 0.293
- log2FC (gene CENPK (Gene 64105), cell cycle genes): 0.519
- log2FC (gene CETN3 (Gene 1070), cell cycle genes): 0.369
- log2FC (gene CHEK2 (Gene 11200), cell cycle genes): 0.312
- CHIA log2FC (gene CHIA (27159), apoptosis genes): -0.023
- CIDEA log2FC (gene CIDEA (1149), apoptosis genes): -0.026
- CLC log2FC (gene CLC (1178), apoptosis genes): -0.009
- CLEC5A log2FC (gene CLEC5A (23601), apoptosis genes): -0.012
- CLSPN log2FC (gene CLSPN (63967), apoptosis genes): 0.066
- CNTFR log2FC (gene CNTFR (1271), apoptosis genes): -0.014
- COL2A1 log2FC (gene COL2A1 (1280), apoptosis genes): 0.036
- COL4A3 log2FC (gene COL4A3 (1285), apoptosis genes): 0.173
- COMP log2FC (gene COMP (1311), apoptosis genes): -0.018
- log2FC (gene COPS5 (Gene 10987), cell cycle genes): 0.503
- log2FC (gene CRLF3 (Gene 51379), cell cycle genes): 0.438
- log2FC (gene CSNK2B (Gene 1460), cell cycle genes): -0.263
- CST3 log2FC (gene CST3 (1471), apoptosis genes): -0.001
- CTLA4 log2FC (gene CTLA4 (1493), apoptosis genes): -0.015
- CXCR4 log2FC (gene CXCR4 (7852), apoptosis genes): -0.044
- CYR61 log2FC (gene CYR61 (3491), apoptosis genes): -0.093
- DAPK2 log2FC (gene DAPK2 (23604), apoptosis genes): 0.127
- DAXX log2FC (gene DAXX (1616), apoptosis genes): 0.003
- log2FC DAXX (gene DAXX (Gene 1616), cell cycle genes): 0.003
- log2FC (gene DCLRE1B (Gene 64858), cell cycle genes): -0.240
- log2FC (gene DDX11 (Gene 1663), cell cycle genes): -0.382
- DDX47 log2FC (gene DDX47 (51202), apoptosis genes): 0.072
- DEDD2 log2FC (gene DEDD2 (162989), apoptosis genes): 0.036
- DFFB log2FC (gene DFFB (1677), apoptosis genes): -0.039
- log2FC (gene DIAPH2 (Gene 1730), cell cycle genes): 0.484
- log2FC DIRAS3 (gene DIRAS3 (Gene 9077), cell cycle genes): 0.0064
- DMPK log2FC (gene DMPK (1760), apoptosis genes): -0.105
- DNM2 log2FC (gene DNM2 (1785), apoptosis genes): -0.047
- DPF1 log2FC (gene DPF1 (8193), apoptosis genes): -0.079
- log2FC ECD (gene ECD (Gene 11319), cell cycle genes): -0.009
- EGR3 log2FC (gene EGR3 (1960), apoptosis genes): -0.131
- EGR4 log2FC (gene EGR4 (1961), apoptosis genes): -0.00345
- ELMO1 log2FC (gene ELMO1 (9844), apoptosis genes): 0.077
- EPB41L3 log2FC (gene EPB41L3 (23136), apoptosis genes): -0.033
